Earlier results in patent publication US20190069585A1, “Compositions of micronutrients and phytochemicals for optimal human health” (priority 2017, published 2019).

Settings: consumed orally by humans

## N[C@@H](CCC(=O)N[C@@H](CS)C(=O)NCC(=O)O)C(=O)O [glutathione]
  plasma levels of glutathione: do not significantly increase
